{
  "source": "patent US8017782B2",
  "about": "“4-phenyl-5-oxo-1,4,5,6,7,8-hexahydroquinoline derivatives as medicaments for the treatment of infertility” (N.V. Organon, priority 2005, dated 2011)",
  "target": "T1, human FSH receptor (Homo sapiens, UniProt P23945)",
  "T1 construct": "expressed in transfected cells; host or cells: Chinese Hamster Ovary (CHO) cells",
  "T1 sequence (P23945 18-695)": "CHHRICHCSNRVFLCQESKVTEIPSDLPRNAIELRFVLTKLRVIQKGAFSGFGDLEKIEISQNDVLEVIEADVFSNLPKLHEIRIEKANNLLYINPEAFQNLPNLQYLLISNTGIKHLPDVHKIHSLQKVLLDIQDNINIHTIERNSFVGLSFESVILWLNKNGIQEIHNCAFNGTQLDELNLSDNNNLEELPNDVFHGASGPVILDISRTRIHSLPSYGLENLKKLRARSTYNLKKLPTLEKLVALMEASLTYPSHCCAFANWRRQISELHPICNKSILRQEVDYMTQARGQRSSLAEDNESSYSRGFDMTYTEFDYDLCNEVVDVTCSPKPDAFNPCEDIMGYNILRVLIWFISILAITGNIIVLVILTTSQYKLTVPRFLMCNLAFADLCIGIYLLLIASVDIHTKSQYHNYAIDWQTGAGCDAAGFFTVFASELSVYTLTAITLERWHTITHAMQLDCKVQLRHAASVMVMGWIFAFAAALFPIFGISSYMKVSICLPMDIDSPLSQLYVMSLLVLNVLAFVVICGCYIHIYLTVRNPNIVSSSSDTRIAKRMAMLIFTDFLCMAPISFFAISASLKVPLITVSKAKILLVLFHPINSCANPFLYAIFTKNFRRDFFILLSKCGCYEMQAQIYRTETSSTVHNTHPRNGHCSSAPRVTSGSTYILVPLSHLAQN",
  "assay": "Agonistic activity at the human FSH receptor expressed in CHO cells (CRE-luciferase reporter)",
  "type": "cell-based",
  "conditions": "CHO cells stably transfected with human FSH receptor and CRE/luciferase reporter; tested 0.1 nM to 10 μM; read-out: EC50 (concentration of test compound causing half-maximal (50%) luciferase stimulation)",
  "experimental": "Agonistic Activity of Compounds at the Human FSH Receptor Expressed in CHO Cells\nAgonist activity of the compounds at the human FSH receptor was tested in Chinese Hamster Ovary (CHO) cells stably transfected with the human FSH receptor and cotransfected with a cAMP responsive element (CRE)/promotor directing the expression of a firefly luciferase reporter gene. Binding of the compound to the Gs-coupled FSH receptor will result in an increase of cAMP, which in turn will induce an increased transactivation of the luciferase reporter construct. The luciferase activity was quantified using a luminescence counter. The compounds were tested in the concentration range of 0.1 nM to 10 μM. This assay was used to determine the EC50 (concentration of test compound causing half-maximal (50%) luciferase stimulation) and efficacy of the compounds compared to recombinant human FSH. For this, the software program XLfit (Excel version 2.0, built 30, ID Business Solutions Limited) was used.",
  "data": [
    {"smiles": "CCCC1CC(=O)C2=C(C1)NC(C)=C(C#N)C2c1cc(Br)c(OCC=CCNC(=O)C2CC2)c(OCC)c1", "note": "(centres unmarked) [Example 3, Cyclopropanecarboxylic acid {4-[2-bromo-4-(3-cyano-2-methyl-5-oxo-7-propyl-1,4,5,6,7,8-hexahydro-quinolin-4-yl)-6-ethoxy-phenoxy]-but-2-enyl}-amide]", "values": [
      {"measurement": "EC50", "value": "< 10", "unit": "nM"}
    ]},
    {"smiles": "CCCC1CC(=O)C2=C(C1)NC(C)=C(C#N)C2c1cc(Br)c(NCCOC)c(S(=O)(=O)N2CCOCC2)c1", "note": "(centres unmarked) [Example 31, 4-[3-Bromo-4-(2-methoxy-ethylamino)-5-(morpholine-4-sulfonyl)-phenyl]-2-methyl-5-oxo-7-propyl-1,4,5,6,7,8-hexahydro-quinoline-3-carbonitrile]", "values": [
      {"measurement": "EC50", "value": "< 10", "unit": "nM"}
    ]},
    {"smiles": "CCCC1CC(=O)C2=C(C1)NC(C)=C(C#N)C2c1cc(Br)c(OCCOC)c(S(=O)(=O)N(C)C)c1", "note": "(centres unmarked) [Example 29, 3-Bromo-5-(3-cyano-2-methyl-5-oxo-7-propyl-1,4,5,6,7,8-hexahydro-quinolin-4-yl)-2-(2-methoxy-ethoxy)-N,N-dimethyl-benzenesulfonamide]", "values": [
      {"measurement": "EC50", "value": "< 10", "unit": "nM"}
    ]},
    {"smiles": "CCCC1CC(=O)C2=C(C1)NC(C)=C(C#N)C2c1cc(Br)c(OCC=CCNC(=O)OCC)c(OCC)c1", "note": "(centres unmarked) [Example 6, {4-[2-Bromo-4-(3-cyano-2-methyl-5-oxo-7-propyl-1,4,5,6,7,8-hexahydro-quinolin-4-yl)-6-ethoxy-phenoxy]-but-2-enyl}-carbamic acid ethyl ester]", "values": [
      {"measurement": "EC50", "value": "< 10", "unit": "nM"}
    ]},
    {"smiles": "CCCC1CC(=O)C2=C(C1)NC(C)=C(C#N)C2c1cc(Br)c(OCCCCCCNS(=O)(=O)C(C)C)c(OCC)c1", "note": "(centres unmarked) [Example 20, Propane-2-sulfonic acid {6-[2-bromo-4-(3-cyano-2-methyl-5-oxo-7-propyl-1,4,5,6,7,8-hexahydro-quinolin-4-yl)-6-ethoxy-phenoxy]-hexyl}-amide]", "values": [
      {"measurement": "EC50", "value": "< 10", "unit": "nM"}
    ]},
    {"smiles": "CCCC1CC(=O)C2=C(C1)NC(C)=C(C#N)C2c1cc(Br)c(OCCOCCOC)c(S(=O)(=O)N(C)C)c1", "note": "(centres unmarked) [Example 30, 3-Bromo-5-(3-cyano-2-methyl-5-oxo-7-propyl-1,4,5,6,7,8-hexahydro-quinolin-4-yl)-2-[2-(2-methoxy-ethoxy)-ethoxy]-N,N-dimethyl-benzenesulfonamide]", "values": [
      {"measurement": "EC50", "value": "< 10", "unit": "nM"}
    ]},
    {"smiles": "CCCC1CC(=O)C2=C(C1)NC(C)=C(C#N)C2c1cc(Br)c(OCC=CCO)c(OCC)c1", "note": "(centres unmarked) [Example 28, 4-[3-Bromo-5-ethoxy-4-(4-hydroxy-but-2-enyloxy)-phenyl]-2-methyl-5-oxo-7-propyl-1,4,5,6,7,8-hexahydro-quinoline-3-carbonitrile]", "values": [
      {"measurement": "EC50", "value": "< 10", "unit": "nM"}
    ]},
    {"smiles": "CCCC1CC(=O)C2=C(C1)NC(C)=C(C#N)C2c1cc(Br)c(OCC=CC(=O)NCc2ccccn2)c(OCC)c1", "note": "(centres unmarked) [Example 12, 4-[2-Bromo-4-(3-cyano-2-methyl-5-oxo-7-propyl-1,4,5,6,7,8-hexahydro-quinolin-4-yl)-6-ethoxy-phenoxy]-but-2-enoic acid (pyridin-2-ylmethyl)-amide]", "values": [
      {"measurement": "EC50", "value": "< 10", "unit": "nM"}
    ]},
    {"smiles": "CCCC1CC(=O)C2=C(C1)NC(C)=C(C#N)C2c1cc(Br)c(OCC=CCNC(=O)C(C)C)c(OCC)c1", "note": "(centres unmarked) [Example 2, N-{4-[2-Bromo-4-(3-cyano-2-methyl-5-oxo-7-propyl-1,4,5,6,7,8-hexahydro-quinolin-4-yl)-6-ethoxy-phenoxy]-but-2-enyl}-isobutyramide]", "values": [
      {"measurement": "EC50", "value": "< 10", "unit": "nM"}
    ]},
    {"smiles": "CCCC1CC(=O)C2=C(C1)NC(C)=C(C#N)C2c1cc(Br)c(OCCOCCO)c(OC(C)C)c1", "note": "(centres unmarked) [Example 24, 4-{3-Bromo-4-[2-(2-hydroxy-ethoxy)-ethoxy]-5-isopropoxy-phenyl}-2-methyl-5-oxo-7-propyl-1,4,5,6,7,8-hexahydro-quinoline-3-carbonitrile]", "values": [
      {"measurement": "EC50", "value": "< 10", "unit": "nM"}
    ]},
    {"smiles": "CCCC1CC(=O)C2=C(C1)NC(C)=C(C#N)C2c1cc(Br)c(NCCOC)c(S(=O)(=O)N2CCCC2)c1", "note": "(centres unmarked) [Example 32, 4-[3-Bromo-4-(2-methoxy-ethylamino)-5-(pyrrolidine-1-sulfonyl)-phenyl]-2-methyl-5-oxo-7-propyl-1,4,5,6,7,8-hexahydro-quinoline-3-carbonitrile]", "values": [
      {"measurement": "EC50", "value": "< 10", "unit": "nM"}
    ]},
    {"smiles": "CCCC1CC(=O)C2=C(C1)NC(C)=C(C#N)C2c1cc(Br)c(OCCO)c(S(=O)(=O)N(C)C)c1", "note": "(centres unmarked) [Example 26, 3-Bromo-5-(3-cyano-2-methyl-5-oxo-7-propyl-1,4,5,6,7,8-hexahydro-quinolin-4-yl)-2-(2-hydroxy-ethoxy)-N,N-dimethyl-benzenesulfonamide]", "values": [
      {"measurement": "EC50", "value": "< 10", "unit": "nM"}
    ]},
    {"smiles": "CCCC1CC(=O)C2=C(C1)NC(C)=C(C#N)C2c1cc(Br)c(OCCCCCNC(=O)COC)c(OCC)c1", "note": "(centres unmarked) [Example 17, N-{5-[2-Bromo-4-(3-cyano-2-methyl-5-oxo-7-propyl-1,4,5,6,7,8-hexahydro-quinolin-4-yl)-6-ethoxy-phenoxy]-pentyl}-2-methoxy-acetamide]", "values": [
      {"measurement": "EC50", "value": "< 10", "unit": "nM"}
    ]},
    {"smiles": "CCCC1CC(=O)C2=C(C1)NC(C)=C(C#N)C2c1cc(Br)c(OCCOCCO)c(S(=O)(=O)N(C)C)c1", "note": "(centres unmarked) [Example 23, 3-Bromo-5-(3-cyano-2-methyl-5-oxo-7-propyl-1,4,5,6,7,8-hexahydro-quinolin-4-yl)-2-[2-(2-hydroxy-ethoxy)-ethoxy]-N,N-dimethyl-benzenesulfonamide]", "values": [
      {"measurement": "EC50", "value": "< 10", "unit": "nM"}
    ]},
    {"smiles": "CCCC1CC(=O)C2=C(C1)NC(C)=C(C#N)C2c1cc(Br)c(OCCCCNC(=O)C(C)C)c(OCC)c1", "note": "(centres unmarked) [Example 13, N-{4-[2-Bromo-4-(3-cyano-2-methyl-5-oxo-7-propyl-1,4,5,6,7,8-hexahydro-quinolin-4-yl)-6-ethoxy-phenoxy]-butyl}-isobutyramide]", "values": [
      {"measurement": "EC50", "value": "< 10", "unit": "nM"}
    ]},
    {"smiles": "CCCC1CC(=O)C2=C(C1)NC(C)=C(C#N)C2c1cc(Br)c(OCC=CCNC(=O)COC)c(OCC)c1", "note": "(centres unmarked) [Example 5, N-{4-[2-Bromo-4-(3-cyano-2-methyl-5-oxo-7-propyl-1,4,5,6,7,8-hexahydro-quinolin-4-yl)-6-ethoxy-phenoxy]-but-2-enyl}-2-methoxy-acetamide]", "values": [
      {"measurement": "EC50", "value": "< 10", "unit": "nM"}
    ]},
    {"smiles": "CCCC1CC(=O)C2=C(C1)NC(C)=C(C#N)C2c1cc(Br)c(OCCOCCNC(=O)C2CC2)c(OCC)c1", "note": "(centres unmarked) [Example 22, Cyclopropanecarboxylic acid (2-{2-[2-bromo-4-(3-cyano-2-methyl-5-oxo-7-propyl-1,4,5,6,7,8-hexahydro-quinolin-4-yl)-6-ethoxy-phenoxy]-ethoxy}-ethyl)-amide]", "values": [
      {"measurement": "EC50", "value": "< 10", "unit": "nM"}
    ]}
  ]
}
